From publication PMC11008251, “Distribution of 2,2′,5,5′-Tetrachlorobiphenyl (PCB52) Metabolites in Adolescent Rats after Acute Nose-Only Inhalation Exposure” (Environmental Science & Technology, 2024)
Where two headings read alike, the source gives them in different places.

Experiments:
[1] = Body and organ weights after PCB52 nose-only inhalation; format: in vivo, Sprague–Dawley rats; details: for Relative Organ Weights, Brain / Relative Organ Weights, Kidneys / Relative Organ Weights, Liver / Relative Organ Weights, Lung / Relative Organ Weights, Ovaries / Relative Organ Weights, Spleen / Relative Organ Weights, Thymus / Relative Organ Weights, Testies: mean (standard deviation); for Adrenal Glands weight / Body Weight Post Exposure / Kidneys weight / Liver weight / Lung weight / Reproductive organ weight / Spleen weight / Thymus weight: n=6
Experimental: (§1) The Institutional Animal Care and Use Committee of the University of Iowa approved all of the animal protocols. Animals were housed in a temperature- and humidity-controlled room (21 °C, 55% relative humidity) with a 12 h light/dark cycle in an Association for the Assessment and Accreditation of Laboratory Animal Care (AAALAC) accredited animal facility. Animals were provided with food (sterile Teklad 5% stock diet, Harlan, Madison, WI) and water ad libitum throughout the study. Thirty-six male and female Sprague–Dawley rats (7 weeks of age; Charles River, Wilmington, MA) were allowed to acclimate to the animal facility for 8 days after arrival. Prior to exposure, rats (227 ± 27 and 197 ± 13 g, male and female, respectively) were randomly assigned to the exposure groups (n = 6 per group) using a random number generated (Excel, version 2307). Animals were simultaneously exposed for 4 h to a low or high concentration of PCB52-laden per sex) or filtered lab air (Figure 1A). Exposure duration was limited to 4 h along with scheduled training days (30 min at 55 days of age and 2 h at 56 days of age) to acclimate animals and minimize stress. […] Animal exposure occurred for 4 h at 57 days of age. Rats are considered adolescents at this age.[38] Serum was collected immediately after the animals were removed from the nose-only apparatus by cardiac puncture under isoflurane anesthesia. Rats were perfused with saline, and organs were excised and stored at −80 °C. Body and organ weights, including brain, lungs, and thymus, were not altered by PCB52 inhalation regardless of sex or exposure (Tables S2 and S3).

[2] = PCB52 and monohydroxylated metabolite tissue levels by GC-MS/MS after 4 h nose-only inhalation; format: in vivo, Sprague–Dawley rats; details: for concentration at 4 h: Sprague-Dawley, rat, inhaled, mean
Experimental: PCB52 vapor for the animal exposure was generated using a published protocol.[12] Briefly, 450 g of 3 mm diameter glass beads were added to a solution of 1.5 g of PCB52 in dichloromethane. The glass beads were then coated with PCB52 by evaporating dichloromethane in a water bath at 29 °C using a rotary evaporator (Buchi Rotavapor R-200, New Castle, DE) under reduced pressure. For the animal exposures, high-efficiency particulate air (HEPA)-filtered laboratory air was passed through the PCB52-coated glass beads at a flow rate of 12 L/min to expose animals to PCB52 vapor in a nose-only exposure apparatus (Figure 1A). The flask of PCB52-coated beads and mixing chamber were kept at 25.0 °C using a precision water bath to facilitate the volatilization of PCB52. The PCB52-laden air was passed through a mixing chamber and distributed to the nose-only inhalation apparatus at a flow rate of 4 L/min per tower (n = 3) and a sampling cartridge filled with 10 g of Amberlite XAD-2 polymeric absorbent resin (Sigma-Aldrich, St. Louis, MO) at a flow rate of 2 L/min. The specified flow rates were generated using flow meter-regulated pumps. The XAD-2 cartridge was used to capture PCB52 vapor to characterize the exposure atmosphere. A sham exposure group was exposed in parallel to HEPA-filtered clean air in an identical nose-only exposure system in an adjacent lab with no supplied PCB52.
as §1
PCB52 and its hydroxylated metabolites were extracted from tissues, serum, and cecum and intestinal content using a published protocol;[40],[41] see the Supporting Information. Briefly, PCB52 and its metabolites were extracted from homogenates by liquid–liquid extraction and cleaned by solid-phase extraction with acidified silica gel. PCB52 and metabolites were quantified in the multiple reaction monitoring setting (MRM) on an Agilent 7890 A GC system equipped with an Agilent 7000 Triple Quad and Agilent 7693 autosampler (Agilent Technologies, Santa Clara, CA); see the Supporting Information.
PCB52 and metabolite levels, adjusted for tissue wet weight, are reported as the mean ± standard deviation. Differences in PCB52 and metabolite levels from the GC-MS/MS analysis were analyzed with the Tobit regression model because some measurements are below the detection limit. […]

For Clc1ccc(Cl)c(-c2cc(Cl)ccc2Cl)c1 [PCB52, 2,2′,5,5′-tetrachlorobiphenyl], the “Relative Organ Weights, Brain” value ([1]; Females, High) was 0.010 (0.001) g/g BW, the “Relative Organ Weights, Kidneys” value ([1]; Females, High) was 0.009 (0.001) g/g BW and the “Relative Organ Weights, Liver” value ([1]; Females, High) was 0.042 (0.003) g/g BW. For the same molecule, the “Relative Organ Weights, Lung” value ([1]; Females, High) was 0.006 (0.001) g/g BW, the “Relative Organ Weights, Ovaries” value ([1]; Females, High) was 0.003 (0.001) g/g BW and the “Relative Organ Weights, Spleen” value ([1]; Females, High) was 0.002 (0.001) g/g BW. The “Relative Organ Weights, Thymus” value ([1]; Females, High) was 0.003 (0.001) g/g BW, the “Relative Organ Weights, Brain” value ([1]; Females, Low) was 0.010 (0.001) g/g BW and the “Relative Organ Weights, Kidneys” value ([1]; Females, Low) was 0.009 (0.001) g/g BW. For the same molecule, the “Relative Organ Weights, Liver” value ([1]; Females, Low) was 0.044 (0.002) g/g BW, the “Relative Organ Weights, Lung” value ([1]; Females, Low) was 0.007 (0.001) g/g BW and the “Relative Organ Weights, Ovaries” value ([1]; Females, Low) was 0.003 (0.001) g/g BW. For the same molecule, the “Relative Organ Weights, Spleen” value ([1]; Females, Low) was 0.003 (0.001) g/g BW, the “Relative Organ Weights, Thymus” value ([1]; Females, Low) was 0.003 (0.001) g/g BW and the “Adrenal Glands weight” value ([1]; High exposure group, female) was 0.06 grams. The “Body Weight Post Exposure” value ([1]; High exposure group, female) was 196.92 ± 9.39 grams, the Kidneys weight ([1]; High exposure group, female) was 1.85 grams and the Liver weight ([1]; High exposure group, female) was 8.29 grams. The Lung weight ([1]; High exposure group, female) was 1.23 grams, the Reproductive organ weight ([1]; High exposure group, female) was 0.59 ± 0.16 grams and the Spleen weight ([1]; High exposure group, female) was 0.44 grams. The Thymus weight ([1]; High exposure group, female) was 0.58 ± 0.06 grams, the “Adrenal Glands weight” value ([1]; High exposure group, male) was 0.03 grams and the “Body Weight Post Exposure” value ([1]; High exposure group, male) was 192.17 ± 22.01 grams. It also gave a Kidneys weight ([1]; High exposure group, male) of 1.73 grams, a Liver weight ([1]; High exposure group, male) of 9.28 grams and a Lung weight ([1]; High exposure group, male) of 1.52 grams. For the same molecule, the Reproductive organ weight ([1]; High exposure group, male) was 1.82 ± 0.52 grams, the Spleen weight ([1]; High exposure group, male) was 0.53 grams and the Thymus weight ([1]; High exposure group, male) was 0.56 ± 0.05 grams. For the same molecule, the “Adrenal Glands weight” value ([1]; Low exposure group, female) was 0.04 grams, the “Body Weight Post Exposure” value ([1]; Low exposure group, female) was 183.46 ± 14.31 grams and the Kidneys weight ([1]; Low exposure group, female) was 1.70 grams. It also gave a Liver weight ([1]; Low exposure group, female) of 8.11 grams, a Lung weight ([1]; Low exposure group, female) of 1.24 grams and a Reproductive organ weight ([1]; Low exposure group, female) of 0.55 ± 0.10 grams. For the same molecule, the Spleen weight ([1]; Low exposure group, female) was 0.47 grams, the Thymus weight ([1]; Low exposure group, female) was 0.61 ± 0.12 grams and the “Adrenal Glands weight” value ([1]; Low exposure group, male) was 0.04 grams. For the same molecule, the “Body Weight Post Exposure” value ([1]; Low exposure group, male) was 228.20 ± 14.09 grams, the Kidneys weight ([1]; Low exposure group, male) was 1.99 grams and the Liver weight ([1]; Low exposure group, male) was 10.31 grams. It also gave a Lung weight ([1]; Low exposure group, male) of 1.48 grams, a Reproductive organ weight ([1]; Low exposure group, male) of 2.51 ± 0.14 grams and a Spleen weight ([1]; Low exposure group, male) of 0.59 grams. The Thymus weight ([1]; Low exposure group, male) was 0.70 ± 0.15 grams, the “Relative Organ Weights, Brain” value ([1]; Males, High) was 0.010 (0.001) g/g BW and the “Relative Organ Weights, Kidneys” value ([1]; Males, High) was 0.009 (0.001) g/g BW. The “Relative Organ Weights, Liver” value ([1]; Males, High) was 0.048 (0.003) g/g BW, the “Relative Organ Weights, Lung” value ([1]; Males, High) was 0.008 (0.002) g/g BW and the “Relative Organ Weights, Spleen” value ([1]; Males, High) was 0.003 (0.001) g/g BW. For the same molecule, the “Relative Organ Weights, Testies” value ([1]; Males, High) was 0.009 (0.002) g/g BW, the “Relative Organ Weights, Thymus” value ([1]; Males, High) was 0.003 (0.001) g/g BW and the “Relative Organ Weights, Brain” value ([1]; Males, Low) was 0.008 (0.001) g/g BW. For the same molecule, the “Relative Organ Weights, Kidneys” value ([1]; Males, Low) was 0.009 (0.001) g/g BW, the “Relative Organ Weights, Liver” value ([1]; Males, Low) was 0.045 (0.002) g/g BW and the “Relative Organ Weights, Lung” value ([1]; Males, Low) was 0.007 (0.002) g/g BW. The “Relative Organ Weights, Spleen” value ([1]; Males, Low) was 0.003 (0.001) g/g BW, the “Relative Organ Weights, Testies” value ([1]; Males, Low) was 0.011 (0.001) g/g BW and the “Relative Organ Weights, Thymus” value ([1]; Males, Low) was 0.003 (0.001) g/g BW. The “Body and organ weights, including brain, lungs, and thymus” value ([1]; regardless of sex or exposure) was “not altered”, the concentration at 4 h ([2]; female, adipose, female, high dose, read-out: PCB or metabolite detected level, Adipose) was 6 ng/g and the concentration at 4 h ([2]; female, adipose, female, low dose, read-out: PCB or metabolite detected level, Adipose) was 6 ng/g. The concentration at 4 h ([2]; female, brain, female, high dose, read-out: PCB or metabolite detected level, Brain) was 2 ng/g, the concentration at 4 h ([2]; female, brain, female, low dose, read-out: PCB or metabolite detected level, Brain) was 2 ng/g and the concentration at 4 h ([2]; female, cecum, female, high dose, read-out: PCB or metabolite detected level, Cecum) was 1 ng/g. For the same molecule, the concentration at 4 h ([2]; female, cecum, female, low dose, read-out: PCB or metabolite detected level, Cecum) was 1 ng/g, the concentration at 4 h ([2]; female, intestinal content, female, high dose, read-out: PCB or metabolite detected level, Intestinal content) was 2 ng/g and the concentration at 4 h ([2]; female, intestinal content, female, low dose, read-out: PCB or metabolite detected level, Intestinal content) was 5 ng/g. The concentration at 4 h ([2]; female, liver, female, high dose, read-out: PCB or metabolite detected level, Liver) was 7 ng/g, the concentration at 4 h ([2]; female, liver, female, low dose, read-out: PCB or metabolite detected level, Liver) was 7 ng/g and the concentration at 4 h ([2]; female, lung, female, high dose, read-out: PCB or metabolite detected level, Lung) was 45 ng/g. For the same molecule, the concentration at 4 h ([2]; female, lung, female, low dose, read-out: PCB or metabolite detected level, Lung) was 41 ng/g, the concentration at 4 h ([2]; female, serum, female, high dose, read-out: PCB or metabolite detected level, Serum) was 1 ng/g and the concentration at 4 h ([2]; female, serum, female, low dose, read-out: PCB or metabolite detected level, Serum) was 1 ng/g. The “general trend of decreasing tissue concentration” value ([2]; irrespective of sex or dose, GC-MS/MS) was “lung > liver > adipose > brain ≈ intestinal content ≈ cecum ≈ serum”, the concentration at 4 h ([2]; male, adipose, male, high dose, read-out: PCB or metabolite detected level, Adipose) was 8 ng/g and the concentration at 4 h ([2]; male, adipose, male, low dose, read-out: PCB or metabolite detected level, Adipose) was 6 ng/g. It also gave a concentration at 4 h ([2]; male, brain, male, high dose, read-out: PCB or metabolite detected level, Brain) of 2 ng/g, a concentration at 4 h ([2]; male, brain, male, low dose, read-out: PCB or metabolite detected level, Brain) of 1 ng/g and a concentration at 4 h ([2]; male, cecum, male, high dose, read-out: PCB or metabolite detected level, Cecum) of 2 ng/g. It also gave a concentration at 4 h ([2]; male, cecum, male, low dose, read-out: PCB or metabolite detected level, Cecum) of 1 ng/g, a concentration at 4 h ([2]; male, intestinal content, male, high dose, read-out: PCB or metabolite detected level, Intestinal content) of 1 ng/g and a concentration at 4 h ([2]; male, intestinal content, male, low dose, read-out: PCB or metabolite detected level, Intestinal content) of 1 ng/g. For the same molecule, the concentration at 4 h ([2]; male, liver, male, high dose, read-out: PCB or metabolite detected level, Liver) was 10 ng/g, the concentration at 4 h ([2]; male, liver, male, low dose, read-out: PCB or metabolite detected level, Liver) was 9 ng/g and the concentration at 4 h ([2]; male, lung, male, high dose, read-out: PCB or metabolite detected level, Lung) was 46 ng/g. It also gave a concentration at 4 h ([2]; male, lung, male, low dose, read-out: PCB or metabolite detected level, Lung) of 50 ng/g, a concentration at 4 h ([2]; male, serum, male, high dose, read-out: PCB or metabolite detected level, Serum) of 2 ng/g and a concentration at 4 h ([2]; male, serum, male, low dose, read-out: PCB or metabolite detected level, Serum) of 2 ng/g.
